# Experimental data: paper PMC7405012, “Detection of Chaetomium globosum, Ch. cochliodes and Ch. rectangulare during the Diversity Tracking of Mycotoxin-Producing Chaetomium-like Isolates Obtained in Buildings in Finland” (Toxins, 2020)
# Like-named read-outs stand apart in the source and are kept apart here.
# How the values were obtained:
# [1] = system: Outdoor T. atroviride SZMC 12474; assay: Resistance to biocides: conidial germination; type: cell-based, Trichoderma atroviride; details: strain SZMC 12474, outdoor T. atroviride
# Experimental: (§1) The toxicity of biocides and chemicals towards the indoor Chaetomium-like isolates and the reference indoor strains of the genera Aspergillus, Paecilomyces, Penicillium and Trichoderma was assessed in parallel with the six parameters presented in the Supplementary Materials: (1) germ tube assay (Figure S3); (2) estimation of turbidity (Figure S4); (3) visual emission of fluorescence (excitation at 360 nm); (4) visual resporulation of conidia; (5) inhibition of glucose consumption; and (6) resazurin reduction. All assays were performed in malt extract broth (12 g L^−1 malt extract, 7.2 µmol mL^−1 glucose, pH 5.5; Scharlab, Barcelona, Spain) in 96-well microtiter plates as described for the ICP assay.
# (§2) The assays measuring inhibition of germination of conidia were done with spore suspensions of 1–2 × 10^6 fungal spores mL−^1. The tests were performed in malt extract broth (Oxoid, Hampshire United Kingdom) 12 g in 1 L, pH 5.5, glucose 7.1 mmol L^−1, and performed on microtiter plates as described by Bencsik et al. for the ICP assay. The germ tube germination is visualized in Figure S3, and the tests estimating turbidity and emission of fluorescence provoked by the germinated and metabolically active conidia and C. globosum ascospores are visualized in Figures S4 and S5. Examples of the tests estimating fluorescence emission, turbidity and re-sporulation of conidia and ascospores are compared in Figure S5. The difference of the endpoints measured with the different assays was between […]. The resazurin reduction assays (Figure S6) were performed as described for the ICP assay, except that the microtiter plates were visually inspected for the change of the blue/violet color of resazurin (indicating inhibition of germination of the exposed conidia) to the […] (indicating metabolic activity and germination of the exposed conidia).
# (§3) The formation of germ tubes was inspected by a phase-contrast microscope (Olympus CKX41, Tokyo, Japan; magnification 400×) and an image recording software (Cellsense® standard version 11.0.06, Olympus Soft Imaging Solutions GmbH, Münster, Germany, 2012) after 1 and 2 days of incubation at 28 °C. The EC50 corresponded to the inhibition of 50% (estimated as the concentration between EC0 and EC100) of the conidia compared to the ethanol control (the growth medium containing 1% of ethanol). The tests were run in triplicate and calibrated with triclosan (CAS: 3380-34-5; Sigma Chemical Co., St. Louis, MO, USA) giving a mean SD of ±<20%.
# [2] = system: Outdoor T. atroviride SZMC 12516; assay: Resistance to biocides: conidial germination; type: cell-based, Trichoderma atroviride; details: strain SZMC 12516, outdoor T. atroviride
# Experimental: as §1, §2, §3
# [3] = system: Outdoor T. atroviride SZMC 12541; assay: Resistance to biocides: conidial germination; type: cell-based, Trichoderma atroviride; details: strain SZMC 12541, outdoor T. atroviride
# Experimental: as §1, §2, §3
# [4] = system: Outdoor T. atroviride SZMC 207080; assay: Resistance to biocides: conidial germination; type: cell-based, Trichoderma atroviride; details: strain SZMC 207080, outdoor T. atroviride
# Experimental: as §1, §2, §3
# [5] = system: Aspergillus section Flavi 7D; assay: Resistance to biocides: conidial germination; type: cell-based; details: strain 7D, indoor Aspergillus section Flavi
# Experimental: as §1, §2, §3
# [6] = system: Indoor Trichoderma atroviride Tri335; assay: Resistance to biocides: conidial germination; type: cell-based; details: strain Tri335, indoor Trichoderma atroviride
# Experimental: as §1, §2, §3
# [7] = system: Aspergillus westerdijkiae PP3; assay: Resistance to biocides: conidial germination; type: cell-based; details: strain PP3, Aspergillus westerdijkiae
# Experimental: as §1, §2, §3
# [8] = system: Aspergillus section Nigri Asp21; assay: Resistance to biocides: conidial germination; type: cell-based; details: strain Asp21, indoor Aspergillus section Nigri
# Experimental: as §1, §2, §3
# Penicillium sp. 20b/skk = assay: Resistance to biocides: conidial germination; type: cell-based; details: strain 20b/skk, indoor Penicillium sp.
# Experimental: as §1, §2, §3
# [9] = system: Paecilomyces sp. Pec1/his; assay: Resistance to biocides: conidial germination; type: cell-based; details: strain Pec1/his, indoor Paecilomyces sp.
# Experimental: as §1, §2, §3
# [10] = system: Aspergillus section Flavi 1/37; assay: Resistance to biocides: conidial germination; type: cell-based; details: strain 1/37, indoor Aspergillus section Flavi
# Experimental: as §1, §2, §3
# Penicillium sp. 26/skk = assay: Resistance to biocides: conidial germination; type: cell-based; details: strain 26/skk, indoor Penicillium sp.
# Experimental: as §1, §2, §3
# [11] = system: Indoor Trichoderma atroviride 14/AM; assay: Resistance to biocides: conidial germination; type: cell-based; details: strain 14/AM
# Experimental: as §1, §2, §3
# [12] = system: Paecilomyces sp. Pec1/skk; assay: Resistance to biocides: conidial germination; type: cell-based; details: strain Pec1/skk, indoor Paecilomyces sp.
# Experimental: as §1, §2, §3
# Penicillium sp. HJ2 = assay: Resistance to biocides: conidial germination; type: cell-based; details: strain HJ2, indoor Penicillium sp.
# Experimental: as §1, §2, §3
# Penicillium sp. 35/skk = assay: Resistance to biocides: conidial germination; type: cell-based; details: strain 35/skk, indoor Penicillium sp.
# Experimental: as §1, §2, §3
# [13] = system: Aspergillus versicolor Gas/226; assay: Resistance to biocides: conidial germination; type: cell-based; details: strain Gas/226, Aspergillus versicolor
# Experimental: as §1, §2, §3
# Penicillium sp. Vaip/skk = assay: Resistance to biocides: conidial germination; type: cell-based; details: strain Vaip/skk, indoor Penicillium sp.
# Experimental: as §1, §2, §3
# [14] = system: Aspergillus calidoustus MH4; assay: Resistance to biocides: conidial germination; type: cell-based; details: strain MH4, indoor Aspergillus calidoustus
# Experimental: as §1, §2, §3
# [15] = system: Paecilomyces variotii Pac2/kop; assay: Resistance to biocides: conidial germination; type: cell-based; details: strain Pac2/kop, indoor Paecilomyces variotii
# Experimental: as §1, §2, §3
# [16] = system: Indoor Trichoderma atroviride Tri7A/SKK; assay: Resistance to biocides: conidial germination; type: cell-based; details: strain Tri7A/SKK
# Experimental: as §1, §2, §3
# Ch. cochliodes OT7 = assay: Resistance to biocides: ascospore germination; type: cell-based; details: strain OT7, indoor Ch. cochliodes
# Experimental: as §1, §2, §3
# Ch. cochliodes OT7b = assay: Resistance to biocides: ascospore germination; type: cell-based; details: strain OT7b, indoor Ch. cochliodes
# Experimental: as §1, §2, §3
# Ch. rectangulare M015 = assay: Resistance to biocides: ascospore germination; type: cell-based; details: strain M015, indoor Ch. rectangulare
# Experimental: as §1, §2, §3
# [17] = Trichoderma atroviride, read-out: EC50
compound,measurement,setting,value
polyhexamethylene biguanide hydrochloride [PHMB],EC50,[1],4 µg/mL
same,EC50,[2],30 µg/mL
same,EC50,[3],2 µg/mL
same,EC50,[4],8 µg/mL
same,EC50,[5],120 µg/mL
same,EC50,[6],4 µg/mL
same,EC50,[7],60 µg/mL
same,EC50,[8],30 µg/mL
same,EC50,Penicillium sp. 20b/skk,30 µg/mL
same,EC50,[9],30 µg/mL
same,EC50,[10],120 µg/mL
same,EC50,Penicillium sp. 26/skk,30 µg/mL
same,EC50,[11],4 µg/mL
same,EC50,[12],16 µg/mL
same,EC50,Penicillium sp. HJ2,1 µg/mL
same,EC50,Penicillium sp. 35/skk,30 µg/mL
same,EC50,[13],60 µg/mL
same,EC50,Penicillium sp. Vaip/skk,8 µg/mL
same,EC50,[14],8 µg/mL
same,EC50,[15],30 µg/mL
same,EC50,[16],8 µg/mL
same,EC50,Ch. cochliodes OT7,8 µg/mL
same,EC50,Ch. cochliodes OT7b,8 µg/mL
same,EC50,Ch. rectangulare M015,4 µg/mL
"O=BOB(O)OB(O)OB=O [Borax, sodium tetraborate]",EC50,[1]; [17],2500 µg/mL
same,EC50,[2]; [17],2500 µg/mL
same,EC50,[3]; [17],1200 µg/mL
same,EC50,[4]; [17],1200 µg/mL
same,EC50,"[5]; FLAVI7D, read-out: EC50",2500 µg/mL
same,EC50,[6]; read-out: EC50,2500 µg/mL
same,EC50,[7]; read-out: EC50,5000 µg/mL
same,EC50,[8]; read-out: EC50,≥ 5000 µg/mL
same,EC50,"Penicillium sp. 20b/skk; SP.20B/SKK, read-out: EC50",> 5000 µg/mL
same,EC50,[9]; read-out: EC50,≥ 5000 µg/mL
same,EC50,"[10]; FLAVI1/37, read-out: EC50",5000 µg/mL
same,EC50,"Penicillium sp. 26/skk; SP.26/SKK, read-out: EC50",> 5000 µg/mL
same,EC50,[11]; read-out: EC50,1200 µg/mL
same,EC50,[12]; read-out: EC50,≥ 5000 µg/mL
same,EC50,Penicillium sp. HJ2; read-out: EC50,2500 µg/mL
same,EC50,"Penicillium sp. 35/skk; SP.35/SKK, read-out: EC50",5000 µg/mL
same,EC50,[13]; read-out: EC50,5000 µg/mL
same,EC50,Penicillium sp. Vaip/skk; read-out: EC50,> 5000 µg/mL
same,EC50,[14]; read-out: EC50,5000 µg/mL
same,EC50,[15]; read-out: EC50,≥ 5000 µg/mL
same,EC50,[16]; read-out: EC50,1200 µg/mL
same,EC50,Ch. cochliodes OT7; read-out: EC50,750 µg/mL
same,EC50,Ch. cochliodes OT7b; read-out: EC50,750 µg/mL
same,EC50,Ch. rectangulare M015; read-out: EC50,5000 µg/mL
"NCl [Chloramine, chloramine]",EC50,[1],2500 µg/mL
same,EC50,[2],2500 µg/mL
same,EC50,[3],2500 µg/mL
same,EC50,[4],2500 µg/mL
same,EC50,[5],600 µg/mL
same,EC50,[7],600 µg/mL
same,EC50,Penicillium sp. 20b/skk,600 µg/mL
same,EC50,[10],600 µg/mL
same,EC50,Penicillium sp. 26/skk,600 µg/mL
same,EC50,Penicillium sp. 35/skk,600 µg/mL
same,EC50,Penicillium sp. Vaip/skk,600 µg/mL
same,EC50,[16],2500 µg/mL
same,EC50,Ch. rectangulare M015,1200 µg/mL
"Oc1cc(Cl)ccc1Oc1ccc(Cl)cc1Cl [Triclosan, 5-Chloro-2-(2,4-dichlorophenoxy)phenol]",EC50,[1]; [17],8 µg/mL
same,EC50,[2]; [17],16 µg/mL
same,EC50,[3]; [17],16 µg/mL
same,EC50,[4]; [17],8 µg/mL
same,EC50,"[5]; FLAVI7D, read-out: EC50",8 µg/mL
same,EC50,[6]; read-out: EC50,30 µg/mL
same,EC50,[7]; read-out: EC50,16 µg/mL
same,EC50,[8]; read-out: EC50,30 µg/mL
same,EC50,"Penicillium sp. 20b/skk; SP.20B/SKK, read-out: EC50",2 µg/mL
same,EC50,[9]; read-out: EC50,30 µg/mL
same,EC50,"[10]; FLAVI1/37, read-out: EC50",8 µg/mL
same,EC50,"Penicillium sp. 26/skk; SP.26/SKK, read-out: EC50",30 µg/mL
same,EC50,[11]; read-out: EC50,30 µg/mL
same,EC50,[12]; read-out: EC50,4 µg/mL
same,EC50,Penicillium sp. HJ2; read-out: EC50,8 µg/mL
same,EC50,[13]; read-out: EC50,16 µg/mL
same,EC50,Penicillium sp. Vaip/skk; read-out: EC50,4 µg/mL
same,EC50,[14]; read-out: EC50,16 µg/mL
same,EC50,[15]; read-out: EC50,4 µg/mL
same,EC50,[16]; read-out: EC50,16 µg/mL
same,EC50,Ch. cochliodes OT7; read-out: EC50,4 µg/mL
same,EC50,Ch. cochliodes OT7b; read-out: EC50,4 µg/mL
same,EC50,Ch. rectangulare M015; read-out: EC50,2 µg/mL
"OCCOc1ccccc1 [Phenoxy-ethanol, phenoxyethanol]",EC50,[1]; [17],3000 µg/mL
same,EC50,[2]; [17],1500 µg/mL
same,EC50,[3]; [17],1500 µg/mL
same,EC50,[4]; [17],3000 µg/mL
same,EC50,"[5]; FLAVI7D, read-out: EC50",1500 µg/mL
same,EC50,[6]; read-out: EC50,3000 µg/mL
same,EC50,[7]; read-out: EC50,1500 µg/mL
same,EC50,[8]; read-out: EC50,3000 µg/mL
same,EC50,"Penicillium sp. 20b/skk; SP.20B/SKK, read-out: EC50",1500 µg/mL
same,EC50,[9]; read-out: EC50,3000 µg/mL
same,EC50,"[10]; FLAVI1/37, read-out: EC50",1500 µg/mL
same,EC50,"Penicillium sp. 26/skk; SP.26/SKK, read-out: EC50",3000 µg/mL
same,EC50,[11]; read-out: EC50,3000 µg/mL
same,EC50,[12]; read-out: EC50,3000 µg/mL
same,EC50,Penicillium sp. HJ2; read-out: EC50,800 µg/mL
same,EC50,"Penicillium sp. 35/skk; SP.35/SKK, read-out: EC50",350 µg/mL
same,EC50,[13]; read-out: EC50,400 µg/mL
same,EC50,Penicillium sp. Vaip/skk; read-out: EC50,800 µg/mL
same,EC50,[14]; read-out: EC50,3200 µg/mL
same,EC50,[15]; read-out: EC50,3000 µg/mL
same,EC50,[16]; read-out: EC50,1500 µg/mL
same,EC50,Ch. cochliodes OT7; read-out: EC50,3000 µg/mL
same,EC50,Ch. cochliodes OT7b; read-out: EC50,3000 µg/mL
same,EC50,Ch. rectangulare M015; read-out: EC50,1500 µg/mL
